# Measurements from PMC12095047, “Transport of phenoxyacetic acid herbicides by PIN-FORMED auxin transporters” (Nature Plants, 2025).
# Where “and” joins values, the source holds several entries; their conditions need not be identical. Equal entries are not always repeated. Entries after “also recorded” stand apart in the source; their conditions may differ. Where two headings read alike, the source gives them in different places.
# Columns and labels:
# Assay type in all cases: biochemical
# [1] = target: T1, PIN8 N117A (Arabidopsis thaliana, UniProt Q9LFP6, N117A); experiment: SSM electrophysiology peak current, PIN8 N117A proteoliposomes; settings: for Relative Peak Current of WT (%): Substrate 2,4-D, replicates
# T1 construct: made in house
# Procedure: SSM, using a SURFE2R N1 from Nanion Technologies, was conducted as described. In brief, soy polar lipid mix (38% phosphatidyl choline, 30% phosphatidyl ethanolamine, 18% phosphatidyl inositol, 7% phosphatidic acid and 7% other soy lipids) and 1-palmitoyl-2-oleoyl-sn-glycero-3-phosphocholin were purchased from Avanti. Liposomes were prepared in Ringer solution without Ca^2+ (115 mM NaCl, 2.5 mM KCl, 1 mM NaHCO3, 10 mM HEPES pH7.4, 1 mM MgCl2) and homogenized using a Lipsofast (Avestin) with a […]. Triton X-100 was added to the liposomes to a final concentration of 1% (v/v). Protein was added to liposomes to a calculated lipid-to-protein ratio (LPR) of 10 unless stated otherwise. The detergent was removed using 400 mg ml^−1 Bio Beads (BioRad) overnight at 4 °C in a rotary shaker. Proteoliposomes were frozen in liquid nitrogen and kept at −80 °C until use. Proteoliposomes were diluted 1:5 in Ringer solution without Ca^2+, sonicated five times and then applied to the sensors by centrifugation (30 min, 3,000 g, 4 °C). Non-activating buffer was Ringer solution without Ca^2+ as described unless specified otherwise, and activating buffer contained the substrate of interest. In most instances we used a single-solution exchange experiment. In this case proteoliposomes, immobilized on the supported membrane, are kept in non-activating buffer as specified. At the beginning of the experiment the non-activating buffer is replaced with fresh identical non-activating buffer, and after 1 s, activating buffer (same buffer containing substrate) is added. After another second, the buffer is replaced with non-activating buffer again. Current response is recorded throughout the entire 3 s. For competition or inhibition, the respective compound was present in non-activating and activating solutions. Each experiment was performed on at least two individual sensors. On each sensor each measurement consists of three technical replicates where the mean is calculated. KD values were determined as described previously. Briefly, the binding current induced by 100 µM NPA was recorded in the presence of different concentrations of the substrate under investigation ranging between 0 µM and 1,000 µM present in the activating solution and the non-activating solution (Extended Data Fig. 5b). […] The maximum peak current was then plotted as a function of the concentration of the substrate under investigation and plotted against the degree of inhibition and fitted with a one-site binding model using GraphPad Prism V10.4.1 The half maximal concentration corresponds to the KD of the substrate under investigation.
# The protocol for expression and purification of AtPIN8 protein (Uniprot: Q9LFP6) in lauryl maltose neopentyl glycol was described previously. All point mutants were generated using Q5 Site-Directed mutagenesis kit (New England Biolabs). The C-flat Holey Carbon grids (CF-1.2/1.3, Cu-300 mesh) were glow-discharged for 45 s at 15 mA in a GloQube Plus (Quorum). […] After 1 h of incubation on ice, the sample was centrifuged at 16,000 g for 15 min before blotting to remove precipitation. A drop of 4 µl of each sample was applied to the glow-discharged grids, blotted with a Vitrobot Mark IV (ThermoFisher Scientific) using the following settings (temperature 4 °C, 100% humidity, blot time of 4 s, blot force −1) and vitrified in liquid ethane.
# [2] = target: T2, PIN8 N223A (Arabidopsis thaliana, UniProt Q9LFP6, N223A); settings: N223A
# T2 construct: made in house
# [3] = target: T3, PIN8 S266A (Arabidopsis thaliana, UniProt Q9LFP6, S266A); settings: PIN8 S266A, Michaelis–Menten fit
# T3 construct: made in house
# [4] = target: T4, PIN8 S55A (Arabidopsis thaliana, UniProt Q9LFP6, S55A); settings: for Peak current: S55A, individual sensors
# T4 construct: made in house
# [5] = target: T5, PIN8 Y150A (Arabidopsis thaliana, UniProt Q9LFP6, Y150A); settings: for Peak current: Y150A, individual sensors
# T5 construct: made in house
# [6] = target: T6, PIN8 S146A (Arabidopsis thaliana, UniProt Q9LFP6, S146A); settings: for Peak current: S146A, individual sensors
# T6 construct: made in house
# [7] = target: T7, PIN8 S55A/S146A (Arabidopsis thaliana, UniProt Q9LFP6, S146A/S55A); settings: Michaelis–Menten fit
# T7 construct: made in house
# [8] = target: T8, PIN8 I51Y (Arabidopsis thaliana, UniProt Q9LFP6, I51Y); settings: Michaelis–Menten fit
# T8 construct: made in house
# [9] = target: T9, PIN8 Y150F (Arabidopsis thaliana, UniProt Q9LFP6, Y150F); settings: PIN8 Y150F, Michaelis–Menten fit
# T9 construct: made in house
# [10] = target: T10, wild-type PIN8 proteoliposomes (Arabidopsis thaliana, UniProt Q9LFP6); experiment: SSM electrophysiology, peak width (FWHM) of current response at LPR10 and LPR50; settings: LPR10 versus LPR50
# T10 construct: made in house
# T10 sequence (Q9LFP6 1-367): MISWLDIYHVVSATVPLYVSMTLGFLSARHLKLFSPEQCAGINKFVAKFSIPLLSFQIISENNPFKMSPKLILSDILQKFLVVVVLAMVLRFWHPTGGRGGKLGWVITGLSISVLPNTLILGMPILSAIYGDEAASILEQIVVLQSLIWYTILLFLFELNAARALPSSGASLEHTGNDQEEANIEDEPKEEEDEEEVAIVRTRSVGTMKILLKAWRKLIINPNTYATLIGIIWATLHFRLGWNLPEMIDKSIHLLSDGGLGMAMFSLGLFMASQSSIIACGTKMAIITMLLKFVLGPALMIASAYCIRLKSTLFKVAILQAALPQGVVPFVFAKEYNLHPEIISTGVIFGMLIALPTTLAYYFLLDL
# [11] = read-out: EC50 of peak current response
# T1 sequence (Q9LFP6 whole entry N117A): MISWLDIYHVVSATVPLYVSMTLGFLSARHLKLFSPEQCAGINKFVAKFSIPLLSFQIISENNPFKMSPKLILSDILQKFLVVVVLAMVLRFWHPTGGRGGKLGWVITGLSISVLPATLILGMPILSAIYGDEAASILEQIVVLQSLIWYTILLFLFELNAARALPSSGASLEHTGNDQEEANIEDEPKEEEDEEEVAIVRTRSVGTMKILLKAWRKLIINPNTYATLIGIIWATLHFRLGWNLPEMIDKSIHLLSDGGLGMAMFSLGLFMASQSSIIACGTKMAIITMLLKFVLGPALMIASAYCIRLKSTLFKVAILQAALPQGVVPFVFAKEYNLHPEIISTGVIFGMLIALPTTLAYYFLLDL
# T4 sequence (Q9LFP6 whole entry S55A): as the sequence (Q9LFP6 whole entry N117A) above, with S55A, A117N counted along it
# T6 sequence (Q9LFP6 whole entry S146A): as the sequence (Q9LFP6 whole entry N117A) above, with A117N, S146A counted along it
# T5 sequence (Q9LFP6 whole entry Y150A): as the sequence (Q9LFP6 whole entry N117A) above, with A117N, Y150A counted along it
# T3 sequence (Q9LFP6 whole entry S266A): as the sequence (Q9LFP6 whole entry N117A) above, with A117N, S266A counted along it
# T9 sequence (Q9LFP6 whole entry Y150F): as the sequence (Q9LFP6 whole entry N117A) above, with A117N, Y150F counted along it
# T8 sequence (Q9LFP6 whole entry I51Y): as the sequence (Q9LFP6 whole entry N117A) above, with I51Y, A117N counted along it
# T7 sequence (Q9LFP6 whole entry S55A/S146A): as the sequence (Q9LFP6 whole entry N117A) above, with S55A, A117N, S146A counted along it
# T2 sequence (Q9LFP6 whole entry N223A): as the sequence (Q9LFP6 whole entry N117A) above, with A117N, N223A counted along it
smiles,measurement,setting,value
"O=C(O)COc1ccc(Cl)cc1Cl [2,4-D, 2,4-dichlorophenoxyacetic acid]",current response / function of PIN8 N117A,[1]; N117A mutation,abolishes the current response; also recorded: abolishes function
same,Relative Peak Current of WT (%),[1]; 2mM,22.8804% and 23.9685% and 24.9449% and 20.0988%
same,Relative Peak Current of WT (%),[1],9.311% and 12.1121% and 13.3294% and 14.1031%
same,fold-change difference to the respective EC50 of wildtype PIN8,[2],completely abolishes binding
same,Imax,[3],12 ± 0.7 nA
same,EC50,[3]; [11],774 ± 70 µM
same,Imax,"[4]; PIN8 S55A, Michaelis–Menten fit",6 ± 0.6 nA
same,EC50,"[4]; PIN8 S55A, Michaelis–Menten fit, read-out: EC50 of peak current response",95 ± 36 µM
same,Peak current,[4]; 5 µM substrate,0.5771 nA and 0.4543 nA and 0.3145 nA and 0.4609 nA
same,Peak current,[4]; 20 µM substrate,1.612 nA and 1.263 nA and 1.114 nA and 1.2922 nA
same,Peak current,[4]; 50 µM substrate,2.6274 nA and 2.193 nA and 2.012 nA and 0.000174 nA
same,Peak current,[4]; 100 µM substrate,3.62 nA and 3.055 nA and 2.8112 nA and 3.289 nA
same,Peak current,[4]; 500 µM substrate,5.907 nA and 5.083 nA and 4.589 nA and 5.296 nA
same,Peak current,[4]; 1000 µM substrate,6.235 nA and 5.542 nA and 4.855 nA and 5.533 nA
same,Peak current,[4]; 2000 µM substrate,6.017 nA and 5.654 nA and 4.774 nA and 5.542 nA
same,Imax,"[5]; PIN8 Y150A, Michaelis–Menten fit",5 ± 1 nA
same,EC50,"[5]; PIN8 Y150A, Michaelis–Menten fit, read-out: EC50 of peak current response",684 ± 256 µM
same,Peak current,[5]; 5 µM substrate,0.1509 nA and 0.05154 nA and 0.05368 nA and 0.1258 nA
same,Peak current,[5]; 20 µM substrate,0.08307 nA and 0.2336 nA and 0.2155 nA and 0.2901 nA
same,Peak current,[5]; 50 µM substrate,0.3395 nA and 0.5519 nA and 0.4679 nA and 0.5665 nA
same,Peak current,[5]; 100 µM substrate,0.6832 nA and 0.8682 nA and 0.7895 nA and 0.907 nA
same,Peak current,[5]; 500 µM substrate,2.171 nA and 2.337 nA and 2.071 nA and 2.343 nA
same,Peak current,[5]; 1000 µM substrate,3.151 nA and 3.173 nA and 2.762 nA and 3.101 nA
same,Peak current,[5]; 2000 µM substrate,4.437 nA and 4.148 nA and 3.583 nA and 4.038 nA
same,Imax,"[6]; PIN8 S146A, Michaelis–Menten fit",8 ± 0.9 nA
same,EC50,"[6]; PIN8 S146A, Michaelis–Menten fit, read-out: EC50 of peak current response",164 ± 67 µM
same,Peak current,[6]; 5 µM substrate,0.446 nA and 0.486 nA and 0.471 nA and 0.573 nA
same,Peak current,[6]; 20 µM substrate,1.337 nA and 0.845 nA and 1.226 nA and 1.49 nA
same,Peak current,[6]; 50 µM substrate,2.387 nA and 1.739 nA and 2.167 nA and 2.694 nA
same,Peak current,[6]; 100 µM substrate,3.422 nA and 2.581 nA and 3.052 nA and 3.828 nA
same,Peak current,[6]; 500 µM substrate,6.088 nA and 4.842 nA and 5.334 nA and 6.787 nA
same,Peak current,[6]; 1000 µM substrate,7.15 nA and 6.069 nA and 6.109 nA and 7.864 nA
same,Peak current,[6]; 2000 µM substrate,8.119 nA and 7.96 nA and 6.88 nA and 9.033 nA
same,Imax,[7],9 ± 2 nA
same,EC50,[7]; [11],38 ± 6 µM
same,Imax,[8],3 ± 0.8 nA
same,EC50,[8]; [11],641 ± 77 µM
same,Imax,[9],8 ± 2 nA
same,EC50,[9]; [11],816 ± 275 µM
same,peak width of SSM-based current response as a function of lipid-to-protein ratio (LPR),[10],vary with lipid-to-protein ratio (LPR)
